Test results: article PMC11876671, “Investigating blood–brain barrier penetration and neurotoxicity of natural products for central nervous system drug development” (Scientific Reports, 2025)
Where a name gives a salt, the structure may show the parent alone. *1 amine or outer side, *2 acyl side, *3 side chain or, on linkers, in order; H or OH if unused. Where a SMILES comes first, the peptide text is derived from it. Bridges are numbered along the chain shown (N, C = ends). [ ]: non-standard residue; d: D form. The star is where a group is joined. X1 = NC1=N[C@@H]([C@H](N[*:1])C(=O)[*:2])C[C@H](O)N1; ΔAla(Z-3-ureido) = NC(=O)N/C=C(\N)C(=O)O; β3hOrn = NCCC[C@H](N)CC(=O)*; Dap = NC[C@H](N)C(=O)O

Experiment: in vitro
Details: PAMPA, PAMPA-BBB Pe

Structure (SMILES) | Papp [×10⁻⁶ cm/s]
COC(=O)c1c(C)cc(O)c(C)c1O [VERAMOSS] | 225
CC[C@]1(O)C[C@H]2CN(CCc3c([nH]c4ccccc34)[C@@](C(=O)OC)(c3cc4c(cc3OC)N(C)[C@H]3[C@@](O)(C(=O)OC)[C@H](OC(C)=O)[C@]5(CC)C=CCN6CC[C@]43[C@@H]65)C2)C1 [V[…]] | 21
COC(=O)[C@@H]1[C@H]2C[C@H]3c4[nH]c5ccccc5c4CCN3C[C@@H]2CC[C@@H]1O [YOHIMBINE] | 42
O=C1C[C@@H]2OCC=C3CN4CC[C@]56c7ccccc7N1[C@H]5[C@H]2[C@H]3C[C@H]46 [[…]] | 13

Same assay, conditions: PAMPA, PAMPA-BBB Pe(10^-6 cm/sec)

Structure (SMILES) | Papp [×10⁻⁶ cm/s]
O=c1ccc2ccc(O)cc2o1 [UMBELLIFERONE] | < 1
CN[C@H](CC(C)C)C(=O)N[C@H]1C(=O)N[C@@H](CC(N)=O)C(=O)N[C@H]2C(=O)N[C@H]3C(=O)N[C@H](C(=O)N[C@H](C(=O)O)c4cc(O)cc(O)c4-c4cc3ccc4O)[C@H](O)c3ccc(c(Cl)c3)Oc3cc2cc(c3O[C@@H]2O[C@H](CO)[C@@H](O)[C@H](O)[C@H]2O[C@H]2C[C@](C)(N)[C@H](O)[C@H](C)O2)Oc2ccc(cc2Cl)[C@H]1O [VANCOMYCIN HYDROCHLORIDE] | < 1
CC[C@]1(O)C[C@@H]2CN(CCc3c([nH]c4ccccc34)[C@@](C(=O)OC)(c3cc4c(cc3OC)N(C)[C@H]3[C@@](O)(C(=O)OC)[C@H](OC(C)=O)[C@]5(CC)C=CCN6CC[C@]43[C@@H]65)C2)C1 [VINBLASTINE] | 5.7
CN(C)[C@@H]1C(O)=C(C(N)=O)C(=O)[C@@]2(O)C(O)=C3C(=O)c4c(O)ccc(Cl)c4[C@@](C)(O)[C@H]3C[C@@H]12 [[…]] | < 1

Same assay, conditions: PAMPA, PAMPA-BBB Pe(10^-6 cm/sec), Table S3: compounds exhibiting low PAMPA-BBB permeability

Structure (SMILES) | Papp [×10⁻⁶ cm/s]
NCCc1c[nH]c2ccccc12 [TRYPTAMINE HYDROCHLORIDE] | < 1
NCCCS(=O)(=O)O [TR[…]] | 1.7
Nc1ncnc2c1ccn2[C@@H]1O[C@H](CO)[C@@H](O)[C@H]1O [TUBERCIDIN] | 2.1
O=c1ccn([C@@H]2O[C@H](COP(=O)(O)O)[C@@H](O)[C@H]2O)c(=O)[nH]1 [URIDINE PHOSPHATE] | < 1
O=C(O)/C=C/c1c[nH]cn1 [UROCANIC ACID] | < 1
O=c1ccn([C@@H]2O[C@H](COP(=O)(O)OP(=O)(O)O)[C@@H](O)[C@H]2O)c(=O)[nH]1 [Uridine diphosphate disodium] | < 1
COc1cc(C(=O)O)ccc1O [VANILLIC ACID] | < 1
COC(=O)C1=CO[C@@H](O[C@@H]2O[C@H](CO)[C@@H](O)[C@H](O)[C@H]2O)[C@H]2[C@@H]1C(=O)C[C@@H]2C [VERBENALIN] | < 1
NCCC[C@H](N)CC(=O)N[C@H]1CNC(=O)[C@H]([C@H]2C[C@H](O)NC(N)=N2)NC(=O)/C(=C/NC(N)=O)NC(=O)[C@H](CO)NC(=O)[C@H](CO)NC1=O [VIOMYCIN SULFATE] (β3hOrn-[Dap]SS[ΔAla(Z-3-ureido)][X1]; lactam 1-C) | < 1
O=c1cc(-c2ccc(O)cc2)oc2c([C@@H]3O[C@H](CO)[C@@H](O)[C@H](O)[C@H]3O)c(O)cc(O)c12 [VITEXIN] | < 1
N[C@@H](Cn1ccc(=O)[nH]c1=O)C(=O)O [WILLARDIINE] | < 1
CC1=C[C@H](O)CC(C)(C)[C@H]1/C=C/C(C)=C/C=C/C(C)=C/C=C/C=C(C)/C=C/C=C(C)/C=C/C1=C(C)C[C@@H](O)CC1(C)C [XANTHOPHYLL] | 5
O=c1[nH]c(=O)c2ncn([C@@H]3O[C@H](CO)[C@@H](O)[C@H]3O)c2[nH]1 [XANTHOSINE] | < 1
CC1=C(/C=C/C(C)=C/C=C/C(C)=C/C=C/C=C(C)/C=C/C=C(C)/C=C/C2=C(C)C[C@@H](O)CC2(C)C)C(C)(C)C[C@H](O)C1 [ZEAXANTHIN] | 2.1
COc1cc(C(O)C(=O)O)ccc1O (stereo not shown) [[…] ACID] | 5.6
O=C1O/C(=C\c2ccc(O)cc2)C(O)=C1c1ccc(O)cc1 [[…] B1] | < 1
O=C(Nc1ccccc1C(=O)O)c1ccccc1 [[…] B] | 1.9
CCCCCCCCCCCCCCCCCCCC(=O)O [[…]] | < 1
C[C@@H]1Cc2c(Cl)cc(C(=O)N[C@@H](Cc3ccccc3)C(=O)O)c(O)c2C(=O)O1 [[…]] | 1.6
Cc1cc(O)cc(O)c1C(=O)O [[…]] | < 1
Cc1ncc(CO)c(CO)c1O [[…]] | < 1
O=C1/C(=C\c2ccc(O)c(O)c2)Oc2c1ccc(O[C@@H]1O[C@H](CO)[C@@H](O)[C@H](O)[C@H]1O)c2O [[…]] | 1
Oc1cc(O)cc(/C=C/c2ccc(O)c(O)c2)c1 [[…]] | 1
[O-][n+]1ccccc1SSc1cccc[n+]1[O-] [[…]] | < 1
COC1=C[C@@H]2C3=C([C@@H]2C1=O)[C@@H](NC(C)=O)CCc1cc(OC)c(OC)c(OC)c13 [β-Lumicolchicine] | 3.6

Same assay, conditions: PAMPA, PAMPA-BBB Pe, Table S2: compounds exhibiting moderate to high PAMPA-BBB permeability

Structure (SMILES) | Papp [×10⁻⁶ cm/s]
O=C(/C=C/c1ccc(O)cc1)c1ccc(O)cc1O [TRIHYDROXYCHALCONE] | 169
CC1=CCCC(C)(C)C12CCC(C)O2 (stereo not shown) [T[…]] | 141
COc1ccc(C(=O)O[C@H]2CC[C@@]3(C)[C@@H]4CC[C@H]5[C@]6(O)C[C@H](O)[C@@]7(O)[C@@H](CN8C[C@@H](C)CC[C@H]8[C@@]7(C)O)[C@]6(O)C[C@@]53O[C@]24O)cc1OC [VERATRIDINE] | 17
CCC12C=CCN3CC[C@@]4(c5ccc(OC)cc5N(C)[C@H]4[C@@](O)(C(=O)OC)[C@@H]1OC(C)=O)[C@@H]32 (stereo partly shown) [VINDOLINE] | 92
O=c1c2ccccc2oc2ccccc12 [XANTHONE] | 173
COc1cc(O)c(C(C)=O)c(OC)c1 [XANTHOXYLINE] | 149
CC1=C[C@H](O)CC(C)(C)[C@H]1/C=C/C(C)=C/C=C/C(C)=C/C=C/C=C(C)/C=C/C=C(C)/C=C/C1=C(C)C[C@@H](O)CC1(C)C [XANTOFYL] | 28
COc1ccc(/C=C/c2cc(OC)cc(=O)o2)cc1 [YANGONIN] | 156
COc1cc(CCC(C)=O)ccc1O [ZINGERONE] | 23
CC(C)[C@H]1C(=O)N[C@H](CO)Cc2c[nH]c3cccc(c23)N1C [[…]] | 47
CN1CC[C@]23c4ccccc4N[C@H]1[C@]21CCN(C)[C@H]3Nc2ccccc21 [[…]] | 23
COC(=O)/C=C\C(=O)O [[…]] | 48
C[C@H]1COC2=C1C(=O)C(=O)c1c2ccc2c1CCCC2(C)C [[…]] | 12
O=C1c2ccccc2-n2c1nc1ccccc1c2=O [[…]] | 141

Experiment: not given
Details: not given

Structure (SMILES) | PAMPA-BBB Pe(10^-6 cm/sec)
COc1cc2c(c3oc(=O)c4c(c13)CCC4=O)[C@@H]1C=CO[C@@H]1O2 [AFLATOXIN B1] | 7.2 10^-6 cm/sec
COc1cc2c(c3oc(=O)c4c(c13)CCOC4=O)C1C=COC1O2 (stereo not shown) [AFLATOXIN G1] | <1 10^-6 cm/sec
COc1cc2c(c3oc(=O)c4c(c13)CCC4=O)[C@@H]1CCO[C@@H]1O2 [DIHYDROAFLATOXINE B1] | 2.8 10^-6 cm/sec

Same assay, conditions: PAMPA

Structure (SMILES) | PAMPA-BBB Pe(10^-6 cm/sec) | PAMPA-BBB Pe
O=C(N[C@H](CO)[C@H](O)c1ccc([N+](=O)[O-])cc1)C(Cl)Cl [CHLORAMPHENICOL] | 3.5 10^-6 cm/sec | 
Cc1nccc2c1[nH]c1ccccc12 [HARMAN] |  | 60 10^-6 cm/sec

Same assay, conditions: Table S2: compounds exhibiting moderate to high PAMPA-BBB permeability

Structure (SMILES) | PAMPA-BBB Pe
COc1cc(OC)c2c(c1Cl)O[C@]1(C2=O)[C@H](C)CC(=O)C[C@@H]1OC [NCGC00016380-01] | 31 10^-6 cm/sec
COc1ccc(C(=O)OC2C[C@H]3CC[C@H](C2)N3C)cc1OC (stereo partly shown) [NCGC00016471-04] | 16 10^-6 cm/sec

Same assay, conditions: Table S3: compounds exhibiting low PAMPA-BBB permeability

Structure (SMILES) | PAMPA-BBB Pe(10^-6 cm/sec)
N[C@H](C(=O)O)c1ccc(O)c(C(=O)O)c1 [NCGC00024539-02] | <1 10^-6 cm/sec
